Assay results taken from patent US9339463B2, “Micronized opioid compositions having a specific particle size distribution” (priority 2007, dated 2016).
Several values for one entry are separate records, joined by “and”; a condition that tells them apart may be missing. Equal entries are not always repeated.

What was measured:
Type in all cases: physicochemical
[1] = Particle size distribution by laser diffraction (Malvern Mastersizer 2000), oxycodone base
[2] = Particle size by optical microscopy, number % undersize; details: mean diameter
Protocol: As a secondary analytical method, the micronized and the non-micronized oxycodone analyzed by laser diffraction with results shown in Table 1, were analyzed by optical microscopy to evaluate particle size and the results are shown in Table 2. Sample aliquots (˜50 mg for micronized and ˜225 mg for non-micronized) were dispersed in 10 ml of sunflower oil and viewed on a Nikon microscope equipped with a 10× objective. Particle size (mean diameter) was determined using Image Pro® Plus software and expressed as a number % undersize. The particle size values determined by optical microscopy as shown in Table 2 are consistent with the laser diffraction particle size data shown in Table 1.

[3] = Chemical stability on storage: assay and impurities
Protocol: Samples of Example 2 and additional samples comprising micronized and non-micronized oxycodone useful for exemplary dosage forms are tested for their chemical stability and physical stability. Based on a comparison of stability data from micronized and non-micronized samples stored at both 25° C./60% RH and 40 C.°/75% RH, no differences are observed in the impurity profile through three months of study as shown in Tables 4 and 5 for exemplary lots. The impurities analyzed include (HOXY), 14-Hydroxycodeinone; (DHOXYN), 7,8-Dihydro-8,14-Dihydroxycodeinone; (DHOXY), 7,8-Dihydro-14-hydroxycodeine; (OXYE), Oxycodone ethylenolate; (OXYN), 1-Hydroxyoxycodone and Oxycodone N-oxide. Most of the impurities are found to be below the limit of quantitation (LOQ), except for HOXY and DHOXYN which were unchanged at 0.1%. […] The solid state stability of the micronized oxycodone is monitored for particle size, XRPD, DSC, and microscopy as shown in Table 6.

[4] = Physical stability on storage: particle size (Dv90) by laser diffraction
[5] = Table 1 analysis, lot 2 in duplicate
[6] = additional laser diffraction analysis, Table 3
[7] = Time 0, listed as Non-micronized Oxycodone Free Base
[8] = 1 month, stored, including at 25° C./60% RH and/or 40° C./75% RH (not specified)
[9] = 3 months, stored, including at 25° C./60% RH and/or 40° C./75% RH (not specified)
[10] = 6 months, stored, including at 25° C./60% RH and/or 40° C./75% RH (not specified)
[11] = 9 months, stored, including at 25° C./60% RH and/or 40° C./75% RH (not specified)
[12] = 12 months, stored, including at 25° C./60% RH and/or 40° C./75% RH (not specified)

COc1ccc2c3c1O[C@H]1C(=O)CC[C@@]4(O)[C@@H](C2)N(C)CC[C@]314 [Lot 2 (waste), oxycodone]
Particle size (Dv10) [1, 5]: 0.5, 0.5 μ
Particle size (Dv50) [1, 5]: 1.6 μ and 2.3 μ
Particle size (Dv90) [1, 5]: 3.3 μ and 4.9 μ

COc1ccc2c3c1O[C@H]1C(=O)CC[C@@]4(O)[C@@H](C2)N(C)CC[C@]314 [Non-micronized, oxycodone]
Particle size (Dv10) [1, 5]: 5.7 μ
Particle size (Dv50) [1, 5]: 20.5 μ
Particle size (Dv90) [1, 5]: 55.5 μ
Particle size (Dv90) ([1]; Table 1 analysis, lot 2 in duplicate, listed as non-micronized sample): 56 μ
Particle size (Dv10) [1, 6]: 4.9 μ
Particle size (Dv50) [1, 6]: 20.1 μ
Particle size (Dv90) [1, 6]: 50.9 μ
Particle size (Dv90) ([1]; additional laser diffraction analysis, Table 3, listed as non-micronized): 51 μ
mean particle size ([1]; oxycodone base before micronization): 51 μ
% ≦ 1μ [2]: 21.4%
% ≦ 5μ [2]: 50.7%
% ≦ 10μ [2]: 69.1%
1-HydroxyOXY ([3]; 25° C./60% RH, 1 mo): <LOQ
DHOXY (7,8-Dihydro-14-hydroxycodeine) ([3]; 25° C./60% RH, 1 mo): <LOQ
DHOXYN (7,8-Dihydro-8,14-Dihydroxycodeinone) ([3]; 25° C./60% RH, 1 mo): 0.10%
HOXY (14-Hydroxycodeinone) ([3]; 25° C./60% RH, 1 mo): 0.08%
OXYE (Oxycodone ethylenolate) ([3]; 25° C./60% RH, 1 mo): <LOQ
OXYN ([3]; 25° C./60% RH, 1 mo): <LOQ
Other (impurities; Table 5: >0.05%) ([3]; 25° C./60% RH, 1 mo): <LOQ
Total impurities ([3]; 25° C./60% RH, 1 mo): 0.18%
Assay ([3]; 25° C./60% RH, 1 mo, listed as Non-micronized Oxycodone Free Base): 99.6%
1-HydroxyOXY ([3]; 25° C./60% RH, 3 mo): <LOQ
DHOXY (7,8-Dihydro-14-hydroxycodeine) ([3]; 25° C./60% RH, 3 mo): <LOQ
DHOXYN (7,8-Dihydro-8,14-Dihydroxycodeinone) ([3]; 25° C./60% RH, 3 mo): 0.10%
HOXY (14-Hydroxycodeinone) ([3]; 25° C./60% RH, 3 mo): 0.08%
OXYE (Oxycodone ethylenolate) ([3]; 25° C./60% RH, 3 mo): <LOQ
OXYN ([3]; 25° C./60% RH, 3 mo): <LOQ
Other (impurities; Table 5: >0.05%) ([3]; 25° C./60% RH, 3 mo): <LOQ
Total impurities ([3]; 25° C./60% RH, 3 mo): 0.18%
Assay ([3]; 25° C./60% RH, 3 mo, listed as Non-micronized Oxycodone Free Base): 99.6%
1-HydroxyOXY ([3]; 40° C./75% RH, 1 mo): <LOQ
DHOXY (7,8-Dihydro-14-hydroxycodeine) ([3]; 40° C./75% RH, 1 mo): <LOQ
DHOXYN (7,8-Dihydro-8,14-Dihydroxycodeinone) ([3]; 40° C./75% RH, 1 mo): 0.10%
HOXY (14-Hydroxycodeinone) ([3]; 40° C./75% RH, 1 mo): 0.08%
OXYE (Oxycodone ethylenolate) ([3]; 40° C./75% RH, 1 mo): <LOQ
OXYN ([3]; 40° C./75% RH, 1 mo): <LOQ
Total impurities ([3]; 40° C./75% RH, 1 mo): 0.18%
Assay ([3]; 40° C./75% RH, 1 mo, listed as Non-micronized Oxycodone Free Base): 99.6%
1-HydroxyOXY ([3]; 40° C./75% RH, 3 mo): <LOQ
DHOXY (7,8-Dihydro-14-hydroxycodeine) ([3]; 40° C./75% RH, 3 mo): <LOQ
DHOXYN (7,8-Dihydro-8,14-Dihydroxycodeinone) ([3]; 40° C./75% RH, 3 mo): 0.10%
HOXY (14-Hydroxycodeinone) ([3]; 40° C./75% RH, 3 mo): 0.08%
OXYE (Oxycodone ethylenolate) ([3]; 40° C./75% RH, 3 mo): <LOQ
OXYN ([3]; 40° C./75% RH, 3 mo): <LOQ
Other (impurities; Table 5: >0.05%) ([3]; 40° C./75% RH, 3 mo): <LOQ
Total impurities ([3]; 40° C./75% RH, 3 mo): 0.18%
Assay ([3]; 40° C./75% RH, 3 mo, listed as Non-micronized Oxycodone Free Base): 99.5%
1-HydroxyOXY ([3]; Time 0): <LOQ
DHOXY (7,8-Dihydro-14-hydroxycodeine) ([3]; Time 0): <LOQ
OXYE (Oxycodone ethylenolate) ([3]; Time 0): <LOQ
OXYN ([3]; Time 0): <LOQ
Other (impurities; Table 5: >0.05%) ([3]; Time 0): <LOQ
Total impurities ([3]; Time 0): 0.18%
Assay [3, 7]: 101.1%
DHOXYN (7,8-Dihydro-8,14-Dihydroxycodeinone) [3, 7]: 0.10%
HOXY (14-Hydroxycodeinone) [3, 7]: 0.08%

COc1ccc2c3c1O[C@H]1C(=O)CC[C@@]4(O)[C@@H](C2)N(C)CC[C@]314 [first high purity lot, oxycodone]
Particle size (Dv90) [4, 8]: 5 μ
Particle size (Dv90) [4, 9]: 5 μ
Particle size (Dv90) [4, 10]: 5 μ
Particle size (Dv90) [4, 11]: 6 μ
Particle size (Dv90) [4, 12]: 6 μ
Particle size (Dv90) ([4]; 25° C./60% RH, 1 month, listed as first high purity micronized lot): 4 μ
Particle size (Dv90) ([4]; 25° C./60% RH, 3 months, listed as first high purity micronized lot): 5 μ
Particle size (Dv90) ([4]; 25° C./60% RH, 6 months, listed as first high purity micronized lot): 5 μ
Particle size (Dv90) ([4]; 25° C./60% RH, 9 months, listed as first high purity micronized lot): 7 μ
Particle size (Dv90) ([4]; 25° C./60% RH, 12 months, listed as first high purity micronized lot): 6 μ
Particle size (Dv90) ([4]; 40° C./75% RH, 1 month, listed as first high purity micronized lot): 5 μ
Particle size (Dv90) ([4]; 40° C./75% RH, 3 months, listed as first high purity micronized lot): 5 μ
Particle size (Dv90) ([4]; 40° C./75% RH, 6 months, listed as first high purity micronized lot): 5 μ
Particle size (Dv90) ([4]; Time 0): 4 μ
Particle size (Dv90) ([4]; Time 0, listed as first high purity micronized lot): 4 μ

COc1ccc2c3c1O[C@H]1C(=O)CC[C@@]4(O)[C@@H](C2)N(C)CC[C@]314 [first lot, oxycodone]
Particle size (Dv90) ([4]; 25° C./60% RH, 6 months): 7 μ
Particle size (Dv90) ([4]; 25° C./60% RH, 9 months): 6 μ
Particle size (Dv90) ([4]; 25° C./60% RH, 12 months): 7 μ
Particle size (Dv90) ([4]; Time 0): 6 μ

COc1ccc2c3c1O[C@H]1C(=O)CC[C@@]4(O)[C@@H](C2)N(C)CC[C@]314 [micronized oxycodone preparation, oxycodone]
Particle size (Dv90) ([4]; Time 0): 5-6 μ
Particle size (Dv90 at three months) ([4]; stored at 25° C./60% RH and 40°/75% RH, 3 months): 6-11 μ

COc1ccc2c3c1O[C@H]1C(=O)CC[C@@]4(O)[C@@H](C2)N(C)CC[C@]314 [second high purity lot, oxycodone]
Particle size (Dv90) [4, 8]: 4 μ
Particle size (Dv90) [4, 9]: 4 μ
Particle size (Dv90) [4, 10]: 5 μ
Particle size (Dv90) [4, 11]: 5 μ
Particle size (Dv90) [4, 12]: 5 μ
Particle size (Dv90) ([4]; 25° C./60% RH, 1 month, listed as second high purity micronized lot): 4 μ
Particle size (Dv90) ([4]; 25° C./60% RH, 3 months, listed as second high purity micronized lot): 4 μ
Particle size (Dv90) ([4]; 25° C./60% RH, 6 months, listed as second high purity micronized lot): 6 μ
Particle size (Dv90) ([4]; 25° C./60% RH, 9 months, listed as second high purity micronized lot): 5 μ
Particle size (Dv90) ([4]; 25° C./60% RH, 12 months, listed as second high purity micronized lot): 6 μ
Particle size (Dv90) ([4]; 40° C./75% RH, 1 month, listed as second high purity micronized lot): 5 μ
Particle size (Dv90) ([4]; 40° C./75% RH, 3 months, listed as second high purity micronized lot): 5 μ
Particle size (Dv90) ([4]; 40° C./75% RH, 6 months, listed as second high purity micronized lot): 6 μ
Particle size (Dv90) ([4]; Time 0): 4 μ
Particle size (Dv90) ([4]; Time 0, listed as second high purity micronized lot): 4 μ

COc1ccc2c3c1O[C@H]1C(=O)CC[C@@]4(O)[C@@H](C2)N(C)CC[C@]314 [second lot, oxycodone]
Particle size (Dv90) ([4]; 25° C./60% RH, 6 months): 5 μ
Particle size (Dv90) ([4]; 25° C./60% RH, 9 months): 6 μ
Particle size (Dv90) ([4]; 25° C./60% RH, 12 months): 6 μ
Particle size (Dv90) ([4]; Time 0): 4 μ

COc1ccc2c3c1O[C@H]1C(=O)CC[C@@]4(O)[C@@H](C2)N(C)CC[C@]314 [third high purity lot, oxycodone]
Particle size (Dv90) [4, 8]: 4 μ
Particle size (Dv90) [4, 9]: 4 μ
Particle size (Dv90) [4, 10]: 5 μ
Particle size (Dv90) [4, 11]: 5 μ
Particle size (Dv90) [4, 12]: 5 μ
Particle size (Dv90) ([4]; 25° C./60% RH, 1 month, listed as third high purity micronized lot): 4 μ
Particle size (Dv90) ([4]; 25° C./60% RH, 3 months, listed as third high purity micronized lot): 4 μ
Particle size (Dv90) ([4]; 25° C./60% RH, 6 months, listed as third high purity micronized lot): 5 μ
Particle size (Dv90) ([4]; 25° C./60% RH, 9 months, listed as third high purity micronized lot): 5 μ
Particle size (Dv90) ([4]; 25° C./60% RH, 12 months, listed as third high purity micronized lot): 5 μ
Particle size (Dv90) ([4]; 40° C./75% RH, 1 month, listed as third high purity micronized lot): 4 μ
Particle size (Dv90) ([4]; 40° C./75% RH, 3 months, listed as third high purity micronized lot): 5 μ
Particle size (Dv90) ([4]; 40° C./75% RH, 6 months, listed as third high purity micronized lot): 5 μ
Particle size (Dv90) ([4]; Time 0): 5 μ
Particle size (Dv90) ([4]; Time 0, listed as third high purity micronized lot): 5 μ

COc1ccc2c3c1O[C@H]1C(=O)CC[C@@]4(O)[C@@H](C2)N(C)CC[C@]314 [third lot, oxycodone]
Particle size (Dv90) ([4]; 25° C./60% RH, 6 months): 6 μ
Particle size (Dv90) ([4]; 25° C./60% RH, 9 months): 6 μ
Particle size (Dv90) ([4]; 25° C./60% RH, 12 months): 7 μ
Particle size (Dv90) ([4]; Time 0): 4 μ
